From ChEMBL document CHEMBL5390320, “Discovery of a Novel Benzodiazepine Series of Cbl-b Inhibitors for the Enhancement of Antitumor Immunity” (ACS Med Chem Lett, 2023)

How the values were obtained:
[1] = target: T1, Cholecystokinin receptor type A (Homo sapiens, UniProt P32238); experiment: Displacement of […] from human CCKA receptor expressed in CHO cell membrane incubated for 60 mins by scintillation counter method; assay type: toxicity, cell membranes
T1 sequence (P32238 whole entry): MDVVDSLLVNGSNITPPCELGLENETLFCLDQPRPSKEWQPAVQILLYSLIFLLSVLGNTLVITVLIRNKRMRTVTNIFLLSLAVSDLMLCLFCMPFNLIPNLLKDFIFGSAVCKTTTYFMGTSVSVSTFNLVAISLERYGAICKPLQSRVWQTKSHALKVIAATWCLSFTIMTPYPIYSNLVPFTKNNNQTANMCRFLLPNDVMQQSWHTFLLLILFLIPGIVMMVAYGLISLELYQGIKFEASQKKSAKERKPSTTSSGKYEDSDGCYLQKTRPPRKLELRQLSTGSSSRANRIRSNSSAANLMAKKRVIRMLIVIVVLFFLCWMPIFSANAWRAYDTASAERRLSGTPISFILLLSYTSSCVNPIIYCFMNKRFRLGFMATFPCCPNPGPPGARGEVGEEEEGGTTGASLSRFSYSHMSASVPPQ

[2] = Lipophilicity, log D of the compound in octanol and sodium phosphate buffer at pH 7.4 incubated for 3 hrs under shaking condition by shake flask method based LC-MS/MS analysis; assay type: physicochemical
[3] = target: T2, E3 ubiquitin-protein ligase CBL-B (Homo sapiens, UniProt Q13191); experiment: Inhibition of Cbl-b in cryo-preserved human CD3-positive T cells assessed as increase in IL-2 production preincubated for 1 hr followed by alpha-CD3 coated stimulation for 24 hrs by flow cytometry method; assay type: cell-based, CD3-positive T cell
T2 sequence (Q13191 whole entry): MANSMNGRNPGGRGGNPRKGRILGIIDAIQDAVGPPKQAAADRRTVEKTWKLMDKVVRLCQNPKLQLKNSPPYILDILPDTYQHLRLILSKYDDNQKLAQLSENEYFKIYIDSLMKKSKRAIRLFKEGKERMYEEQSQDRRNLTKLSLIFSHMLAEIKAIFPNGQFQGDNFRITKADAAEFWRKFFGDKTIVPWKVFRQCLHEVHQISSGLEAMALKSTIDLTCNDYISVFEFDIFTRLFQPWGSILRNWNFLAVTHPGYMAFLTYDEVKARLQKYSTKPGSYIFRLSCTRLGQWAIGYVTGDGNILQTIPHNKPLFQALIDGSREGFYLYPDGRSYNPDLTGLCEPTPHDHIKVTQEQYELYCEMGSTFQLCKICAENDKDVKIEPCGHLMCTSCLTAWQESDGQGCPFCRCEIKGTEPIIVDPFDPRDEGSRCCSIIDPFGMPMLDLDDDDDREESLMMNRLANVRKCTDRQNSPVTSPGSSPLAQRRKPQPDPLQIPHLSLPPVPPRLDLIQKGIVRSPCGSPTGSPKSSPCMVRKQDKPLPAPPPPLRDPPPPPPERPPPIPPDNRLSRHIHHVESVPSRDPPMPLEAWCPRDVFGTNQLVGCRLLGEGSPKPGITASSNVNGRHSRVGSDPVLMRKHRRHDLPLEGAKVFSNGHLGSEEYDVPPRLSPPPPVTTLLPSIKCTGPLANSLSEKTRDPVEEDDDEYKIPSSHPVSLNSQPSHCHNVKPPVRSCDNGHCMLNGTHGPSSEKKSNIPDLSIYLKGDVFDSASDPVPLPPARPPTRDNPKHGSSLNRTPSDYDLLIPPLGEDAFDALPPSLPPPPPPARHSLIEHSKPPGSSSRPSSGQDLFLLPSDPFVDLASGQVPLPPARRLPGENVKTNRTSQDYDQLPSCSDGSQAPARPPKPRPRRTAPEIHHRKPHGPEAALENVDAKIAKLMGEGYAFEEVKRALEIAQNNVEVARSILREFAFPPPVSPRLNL

[4] = target: T2, E3 ubiquitin-protein ligase CBL-B; experiment: Displacement of FAM-labeled probe from recombinant biotinylated Cbl-b (unknown origin) expressed in Escherichia coli BL21(DE3) Tuner cells by TR-FRET assay
[5] = target: T2, E3 ubiquitin-protein ligase CBL-B; experiment: Binding affinity to avidin-biotinylated Cbl-b at (36 to 427 residues) (unknown origin) assessed as dissociation constant by SPR analysis
[6] = target: T2, E3 ubiquitin-protein ligase CBL-B; experiment: Inhibition of recombinant Cbl-b (unknown origin) ubiquitination incubated for 60 mins in presence of ATP by TR-FRET assay
[7] = target: T2, E3 ubiquitin-protein ligase CBL-B; experiment: Inhibition of recombinant Cbl-b (unknown origin) mediated ZAP70 ubiquitination incubated for 60 mins by TR-FRET assay

Row | SMILES | logD at 3 h [2] | IC50 [4] | further results
1 | COCCNC(=O)c1ccc2c(c1)NC(=O)[C@@H](NC(=O)c1ccccc1CN1CCO[C@@H](C)C1)N=C2c1ccccc1 | 3.7 | 13 nM | Ki [1]: 24300 nM; EC50 [3]: 2610 nM
2 | O=C(N[C@H]1N=C(c2ccccc2)c2ccccc2NC1=O)c1ccccc1CN1CCOCC1 | 3.9 | 94 nM | –
3 | C[C@H]1CN(Cc2ccccc2C(=O)N[C@H]2N=C(c3ccccc3)c3ccc(C(=O)N4CCN(C)C(=O)C4)cc3NC2=O)CCO1 | 2.5 | 13 nM | Ki [1]: > 100000 nM; EC50 [3]: 1650 nM
4 | C[C@H]1CN(Cc2ccccc2C(=O)N[C@H]2N=C(c3ccccc3)c3ccccc3NC2=O)CCO1 | 4.1 | 13 nM | Ki [1]: 3720 nM; EC50 [3]: 14000 nM
5 | C[C@@H]1CN(Cc2ccccc2C(=O)N[C@H]2N=C(c3ccccc3)c3ccccc3NC2=O)CCO1 | 4.1 | 10 nM | Ki [1]: 2630 nM; EC50 [3]: > 30000 nM
6 | O=C(N[C@@H]1N=C(c2ccccc2)c2ccccc2NC1=O)c1ccccc1CN1CCOCC1 | 3.9 | 8000 nM | –
7 | C[C@H]1CCCN(Cc2cc3c(c(C(F)(F)F)c2)CN(c2cccc([C@]4(c5nncn5C)C[C@@H](C)C4)c2)C3=O)C1 | – | 9 nM | Kd [5]: 3 nM
8 | C[C@H]1CN(Cc2ccccc2C(=O)N[C@H]2N=C(c3ccccc3)c3ccncc3NC2=O)CCO1 | 3.3 | 15 nM | IC50 [6]: 50500 nM; Ki [1]: > 100000 nM; IC50 [7]: 37200 nM; EC50 [3]: 410 nM
9 | C[C@@H]1CN(Cc2ccccc2C(=O)NC2N=C(c3ccccc3)c3ccccc3NC2=O)C[C@H](C)O1 (mixture of isomers) | 4.3 | 1800 nM | –
10 | C[C@@H]1CN(Cc2ccccc2C(=O)NC2N=C(c3ccccc3)c3ccccc3NC2=O)CCO1 (mixture of isomers) | 4.1 | 31 nM | –
11 | C[C@H]1COCCN1Cc1ccccc1C(=O)NC1N=C(c2ccccc2)c2ccccc2NC1=O (mixture of isomers) | 4 | 1900 nM | –
12 | C[C@H]1CN(Cc2ccccc2C(=O)NC2N=C(c3ccccc3)c3ccccc3NC2=O)CCO1 (mixture of isomers) | 4.2 | 26 nM | –
13 | C[C@@H]1COCCN1Cc1ccccc1C(=O)NC1N=C(c2ccccc2)c2ccccc2NC1=O (mixture of isomers) | 3.9 | 4800 nM | –
14 | O=C(NC1N=C(c2ccccc2)c2ccccc2NC1=O)c1ccccc1CN1CCOCC1 (racemic) | 3.8 | 210 nM | Kd [5]: 400 nM
15 | O=C(NC1N=C(c2ccccc2)c2ccccc2NC1=O)c1ccoc1CN1CCOCC1 (racemic) | 3.1 | 1500 nM | –
16 | O=C(NC1N=C(c2ccccc2)c2ccccc2NC1=O)c1ccccc1N1CCOCC1 (racemic) | – | > 100000 nM | –
17 | O=C(NC1N=C(c2ccc[nH]c2=O)c2ccccc2NC1=O)c1ccccc1CN1CCOCC1 (racemic) | 1.2 | 20000 nM | –
18 | O=C(NC1N=C(c2ccccc2)c2ccccc2NC1=O)c1ccccc1CN1CCn2nccc2C1 (racemic) | 3.9 | 710 nM | –
19 | O=C(NC1N=C(c2ccccc2)c2ccccc2NC1=O)c1cnccc1CN1CCOCC1 (racemic) | 2.7 | 1300 nM | –
20 | O=C(NC1N=C(c2ccccc2)c2ccccc2NC1=O)c1sccc1CN1CCOCC1 (racemic) | 3.3 | 360 nM | –
21 | Cn1ncc2c1CN(Cc1ccccc1C(=O)NC1N=C(c3ccccc3)c3ccccc3NC1=O)C2 (racemic) | 3.8 | 350 nM | –
22 | O=C(NC1N=C(c2ccccc2)c2ccccc2NC1=O)c1ccccc1CN1CCCCC1 (racemic) | – | > 100000 nM | –
23 | CC1(C)CN(Cc2ccccc2C(=O)NC2N=C(c3ccccc3)c3ccccc3NC2=O)CCO1 (racemic) | 4.3 | 3900 nM | –
24 | O=C(NC1N=C(c2cc[nH]c(=O)c2)c2ccccc2NC1=O)c1ccccc1CN1CCOCC1 (racemic) | 1.7 | 11000 nM | –
25 | O=C(NC1N=C(c2ccncc2)c2ccccc2NC1=O)c1ccccc1CN1CCOCC1 (racemic) | 2.6 | 2000 nM | –
26 | O=C(NC1N=C(c2ccccc2)c2ccccc2NC1=O)c1ccccc1CN1CCn2nncc2C1 (racemic) | 2.9 | 300 nM | –
